Assay results published in US8710065B2, “Tricyclic inhibitors of kinases” (AbbVie Inc., priority 2011, dated 2014).

These compounds were tested against T1, GST-tagged-Wee1 kinase (Homo sapiens, UniProt P30291) (assay: Wee1 time-resolved fluorescence equilibrium binding assay (displacement of Oregon Green-labeled ATP-competitive kinase probe)). Conditions: read-out: Wee-1 inhibition (Ki).
T1 construct: purchased Carnabio (Carna Biosciences) 05-177
Outline: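 Ki values derive from competitive displacement, under equilibrium, of a fast-reversible ATP-site Oregon Green kinase probe from GST-tagged Wee1, detected by time-resolved fluorescence.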

T1 sequence (P30291 whole entry): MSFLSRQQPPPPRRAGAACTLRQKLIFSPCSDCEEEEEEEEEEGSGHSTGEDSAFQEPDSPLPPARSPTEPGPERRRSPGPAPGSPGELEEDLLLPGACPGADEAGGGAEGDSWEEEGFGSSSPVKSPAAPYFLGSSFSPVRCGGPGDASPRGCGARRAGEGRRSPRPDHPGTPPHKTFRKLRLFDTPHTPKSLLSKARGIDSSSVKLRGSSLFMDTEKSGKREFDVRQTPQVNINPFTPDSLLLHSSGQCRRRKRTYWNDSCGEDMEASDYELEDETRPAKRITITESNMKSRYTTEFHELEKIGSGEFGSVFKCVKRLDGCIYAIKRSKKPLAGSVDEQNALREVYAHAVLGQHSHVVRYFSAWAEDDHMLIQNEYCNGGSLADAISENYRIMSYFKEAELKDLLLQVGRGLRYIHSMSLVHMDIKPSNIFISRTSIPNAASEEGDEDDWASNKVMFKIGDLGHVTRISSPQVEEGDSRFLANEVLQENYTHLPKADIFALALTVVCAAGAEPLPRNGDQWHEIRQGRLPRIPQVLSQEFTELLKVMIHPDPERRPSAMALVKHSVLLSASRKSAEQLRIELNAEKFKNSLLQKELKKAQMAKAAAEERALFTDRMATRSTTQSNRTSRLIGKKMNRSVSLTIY

Ki | SMILES
< 10 nM | O=c1c2cnc(Nc3ccc(N4CC5(CCNC5)C4)cc3)nc2n2ccnc2n1-c1c(Cl)cccc1Cl [Example 313, 2-{[4-(2,6-diazaspiro[3.4]oct-2-yl)phenyl]amino}-6-(2,6-dichlorophenyl)imidazo[1,2-a]pyrimido[5,4-e]pyrimidin-5(6H)-one]
< 10 nM | O=c1c2cnc(Nc3ccc(N4CC5(CCNCC5)C4)cc3)nc2n2ccnc2n1-c1c(Cl)cccc1Cl [Example 314, 2-{[4-(2,7-diazaspiro[3.5]non-2-yl)phenyl]amino}-6-(2,6-dichlorophenyl)imidazo[1,2-a]pyrimido[5,4-e]pyrimidin-5(6H)-one]
< 10 nM | CN(C)[C@H]1CCN(c2ccc(Nc3ncc4c(=O)n(-c5c(Cl)cccc5Cl)c5nccn5c4n3)cc2)C1 [Example 315, 6-(2,6-dichlorophenyl)-2-({4-[(3S)-3-(dimethylamino)pyrrolidin-1-yl]phenyl}amino)imidazo[1,2-a]pyrimido[5,4-e]pyrimidin-5(6H)-one]
< 10 nM | CC1(C)CN(C(=O)CO)Cc2cc(Nc3ncc4c(=O)n(-c5c(F)cccc5Cl)c5nccn5c4n3)ccc21 [Example 316, 6-(2-chloro-6-fluorophenyl)-2-{[2-(hydroxyacetyl)-4,4-dimethyl-1,2,3,4-tetrahydroisoquinolin-7-yl]amino}imidazo[1,2-a]pyrimido[5,4-e]pyrimidin-5(6H)-one]
< 10 nM | CC1(C)CN(S(N)(=O)=O)Cc2cc(Nc3ncc4c(=O)n(-c5c(F)cccc5Cl)c5nccn5c4n3)ccc21 [Example 317, 7-{[6-(2-chloro-6-fluorophenyl)-5-oxo-5,6-dihydroimidazo[1,2-a]pyrimido[5,4-e]pyrimidin-2-yl]amino}-4,4-dimethyl-3,4-dihydroisoquinoline-2(1H)-sulfonamide]
< 10 nM | CC(=O)N1Cc2cc(Nc3ncc4c(=O)n(-c5c(Cl)cccc5Cl)c5nccn5c4n3)ccc2C(C)(C)C1 [Example 318, 2-[(2-acetyl-4,4-dimethyl-1,2,3,4-tetrahydroisoquinolin-7-yl)amino]-6-(2,6-dichlorophenyl)imidazo[1,2-a]pyrimido[5,4-e]pyrimidin-5(6H)-one]
< 10 nM | CC1(C)CN(S(C)(=O)=O)Cc2cc(Nc3ncc4c(=O)n(-c5c(Cl)cccc5Cl)c5nccn5c4n3)ccc21 [Example 319, 6-(2,6-dichlorophenyl)-2-{[4,4-dimethyl-2-(methylsulfonyl)-1,2,3,4-tetrahydroisoquinolin-7-yl]amino}imidazo[1,2-a]pyrimido[5,4-e]pyrimidin-5(6H)-one]
< 10 nM | CCS(=O)(=O)N1Cc2cc(Nc3ncc4c(=O)n(-c5c(Cl)cccc5Cl)c5nccn5c4n3)ccc2C(C)(C)C1 [Example 320, 6-(2,6-dichlorophenyl)-2-{[2-(ethylsulfonyl)-4,4-dimethyl-1,2,3,4-tetrahydroisoquinolin-7-yl]amino}imidazo[1,2-a]pyrimido[5,4-e]pyrimidin-5(6H)-one]
< 10 nM | CC(=O)N1CCC(Nc2ccc(Nc3ncc4c(=O)n(-c5c(Cl)cccc5Cl)c5nccn5c4n3)cc2)CC1 [Example 321, 2-({4-[(1-acetylpiperidin-4-yl)amino]phenyl}amino)-6-(2,6-dichlorophenyl)imidazo[1,2-a]pyrimido[5,4-e]pyrimidin-5(6H)-one]
< 10 nM | CS(=O)(=O)N1CCC(Nc2ccc(Nc3ncc4c(=O)n(-c5c(Cl)cccc5Cl)c5nccn5c4n3)cc2)CC1 [Example 322, 6-(2,6-dichlorophenyl)-2-[(4-{[1-(methylsulfonyl)piperidin-4-yl]amino}phenyl)amino]imidazo[1,2-a]pyrimido[5,4-e]pyrimidin-5(6H)-one]
< 10 nM | CN1CCC2(CC1)CCN(c1ccc(Nc3ncc4c(=O)n(-c5c(Cl)cccc5Cl)c5nccn5c4n3)cc1)CC2 [Example 323, 6-(2,6-dichlorophenyl)-2-{[4-(9-methyl-3,9-diazaspiro[5.5]undec-3-yl)phenyl]amino}imidazo[1,2-a]pyrimido[5,4-e]pyrimidin-5(6H)-one]
< 10 nM | CS(=O)(=O)N1CCC2(CN(c3ccc(Nc4ncc5c(=O)n(-c6c(Cl)cccc6Cl)c6nccn6c5n4)cc3)C2)C1 [Example 324, 6-(2,6-dichlorophenyl)-2-({4-[6-(methylsulfonyl)-2,6-diazaspiro[3.4]oct-2-yl]phenyl}amino)imidazo[1,2-a]pyrimido[5,4-e]pyrimidin-5(6H)-one]
< 10 nM | O=c1c2cnc(Nc3ccc(N4CCN5CCC[C@H]5C4)cc3)nc2n2ccnc2n1-c1ccccc1Cl [Example 325, 6-(2-chlorophenyl)-2-({4-[(8aS)-hexahydropyrrolo[1,2-a]pyrazin-2(1H)-yl]phenyl}amino)imidazo[1,2-a]pyrimido[5,4-e]pyrimidin-5(6H)-one]
< 10 nM | CN1C[C@H]2CCN(c3ccc(Nc4ncc5c(=O)n(-c6c(Cl)cccc6Cl)c6nccn6c5n4)cc3)[C@H]2C1 [Example 326, 6-(2,6-dichlorophenyl)-2-({4-[(3aR,6aR)-5-methylhexahydropyrrolo[3,4-b]pyrrol-1(2H)-yl]phenyl}amino)imidazo[1,2-a]pyrimido[5,4-e]pyrimidin-5(6H)-one]
< 10 nM | CCN(CCN(C)C)c1ccc(Nc2ncc3c(=O)n(-c4c(Cl)cccc4Cl)c4nccn4c3n2)cc1 [Example 327, 6-(2,6-dichlorophenyl)-2-[(4-{[2-(dimethylamino)ethyl](ethyl)amino}phenyl)amino]imidazo[1,2-a]pyrimido[5,4-e]pyrimidin-5(6H)-one]
< 10 nM | CC(C)NCCN(c1ccc(Nc2ncc3c(=O)n(-c4c(Cl)cccc4Cl)c4nccn4c3n2)cc1)C(C)C [Example 328, 6-(2,6-dichlorophenyl)-2-[(4-{propan-2-yl[2-(propan-2-ylamino)ethyl]amino}phenyl)amino]imidazo[1,2-a]pyrimido[5,4-e]pyrimidin-5(6H)-one]
< 10 nM | CC(=O)N1CCc2ccc(Nc3ncc4c(=O)n(-c5c(Cl)cccc5Cl)c5nccn5c4n3)cc2C1 [Example 329, 2-[(2-acetyl-1,2,3,4-tetrahydroisoquinolin-7-yl)amino]-6-(2,6-dichlorophenyl)imidazo[1,2-a]pyrimido[5,4-e]pyrimidin-5(6H)-one]
< 10 nM | CS(=O)(=O)N1CCc2cc(Nc3ncc4c(=O)n(-c5c(Cl)cccc5Cl)c5nccn5c4n3)ccc2C1 [Example 330, 6-(2,6-dichlorophenyl)-2-{[2-(methylsulfonyl)-1,2,3,4-tetrahydroisoquinolin-6-yl]amino}imidazo[1,2-a]pyrimido[5,4-e]pyrimidin-5(6H)-one]
< 10 nM | CC(=O)N1CCc2cc(Nc3ncc4c(=O)n(-c5c(Cl)cccc5Cl)c5nccn5c4n3)ccc2C1 [Example 331, 2-[(2-acetyl-1,2,3,4-tetrahydroisoquinolin-6-yl)amino]-6-(2,6-dichlorophenyl)imidazo[1,2-a]pyrimido[5,4-e]pyrimidin-5(6H)-one]
< 10 nM | CN1CCN(c2ccc(Nc3ncc4c(=S)n(-c5ccccc5Cl)c5nccn5c4n3)cc2)CC1 [Example 332, 6-(2-chlorophenyl)-2-{[4-(4-methylpiperazin-1-yl)phenyl]amino}imidazo[1,2-a]pyrimido[5,4-e]pyrimidine-5(6H)-thione]
< 10 nM | CN1CCN(c2ccc(Nc3ncc4c(=N)n(-c5ccccc5Cl)c5nccn5c4n3)cc2)CC1 [Example 333, 6-(2-chlorophenyl)-5-imino-N-[4-(4-methylpiperazin-1-yl)phenyl]-5,6-dihydroimidazo[1,2-a]pyrimido[5,4-e]pyrimidin-2-amine]
